{"source": "patent US4374765A", "about": "“Mammalian collagenase inhibitors” (American Home Products Corporation, priority 1981, dated 1983)", "tested_on": "collagenase", "assay": "collagenase inhibition, acetyl 14C collagen hydrolysis (procedure of Sellers et al.)", "assay_type": "biochemical", "settings": "2mM inhibitor, 35° C., 5 to 18 hours, Tris-CaCl2 pH 7.4, vs control devoid of inhibitor", "description": "The inhibitory effect of the compounds of this invention toward collagenase was determined following the procedure of Sellers et al., Biochem. J. 167 353-360 (1977) whereby the 2mM of the inhibitor being tested is incubated at 35° C. for from 5 to 18 hours (depending upon the potency of the collagenase) with collagen and collagenase (buffered with Tris®--CaCl2; pH 7.4). The collagen is acetyl ^14 C collagen. The samples are centrifuged and an aliquot removed for assay on a scintillation counter. Because native collagen forms insoluble fibrils under the test conditions, the supernatant liquid contains radioactivity as a measure of hydrolysis. The collagenase activity in the presence of 2mM inhibitor is compared to activity in a control devoid of hinibitor and the results reported as percent inhibition of collagenase activity. Each of the compounds of this invention have been established as active collagenase inhibitors by the test procedure.", "note": "Residues, ends and D or L forms follow the SMILES beside them.", "data": [{"smiles": "CC(=O)NCC(=O)N[C@@H](CS)C(=O)NCC(=O)N[C@@H](CCC(=O)O)C(=O)N[C@@H](CCC(=O)O)C(N)=O", "note": "[CH3 CO-Gly-L-Cys-Gly-L-Glu-L-Glu-NH2] (Ac-GCGEE-NH2)", "values": [{"measurement": "Percent collagenase inhibition", "result": 80, "unit": "%"}]}]}
